Key:
platelets = test: platelet adhesion to FN or FNPEG-5K immobilized on tissue culture plates; assay type: cell-based, human; settings: protein immobilized onto tissue culture plates; fluorescently labeled platelets
Protocol: As mentioned previously, FN itself has the ability to mediate adhesion of platelets. To test whether this binding potential was eliminated following mPEG-aldehyde derivatization, FN and FNPEG-5K were immobilized onto tissue culture plates. Fluorescently labeled human […] and adhesion was assessed.

[1] = biological target: plate-immobilized collagen (Homo sapiens, UniProt P02452+P08123); test: collagen binding study with iodinated FN and FNPEG-5K; settings: iodinated protein; compared with native FN
plate-immobilized collagen, sequence (P02452 162-1218 limits assumed): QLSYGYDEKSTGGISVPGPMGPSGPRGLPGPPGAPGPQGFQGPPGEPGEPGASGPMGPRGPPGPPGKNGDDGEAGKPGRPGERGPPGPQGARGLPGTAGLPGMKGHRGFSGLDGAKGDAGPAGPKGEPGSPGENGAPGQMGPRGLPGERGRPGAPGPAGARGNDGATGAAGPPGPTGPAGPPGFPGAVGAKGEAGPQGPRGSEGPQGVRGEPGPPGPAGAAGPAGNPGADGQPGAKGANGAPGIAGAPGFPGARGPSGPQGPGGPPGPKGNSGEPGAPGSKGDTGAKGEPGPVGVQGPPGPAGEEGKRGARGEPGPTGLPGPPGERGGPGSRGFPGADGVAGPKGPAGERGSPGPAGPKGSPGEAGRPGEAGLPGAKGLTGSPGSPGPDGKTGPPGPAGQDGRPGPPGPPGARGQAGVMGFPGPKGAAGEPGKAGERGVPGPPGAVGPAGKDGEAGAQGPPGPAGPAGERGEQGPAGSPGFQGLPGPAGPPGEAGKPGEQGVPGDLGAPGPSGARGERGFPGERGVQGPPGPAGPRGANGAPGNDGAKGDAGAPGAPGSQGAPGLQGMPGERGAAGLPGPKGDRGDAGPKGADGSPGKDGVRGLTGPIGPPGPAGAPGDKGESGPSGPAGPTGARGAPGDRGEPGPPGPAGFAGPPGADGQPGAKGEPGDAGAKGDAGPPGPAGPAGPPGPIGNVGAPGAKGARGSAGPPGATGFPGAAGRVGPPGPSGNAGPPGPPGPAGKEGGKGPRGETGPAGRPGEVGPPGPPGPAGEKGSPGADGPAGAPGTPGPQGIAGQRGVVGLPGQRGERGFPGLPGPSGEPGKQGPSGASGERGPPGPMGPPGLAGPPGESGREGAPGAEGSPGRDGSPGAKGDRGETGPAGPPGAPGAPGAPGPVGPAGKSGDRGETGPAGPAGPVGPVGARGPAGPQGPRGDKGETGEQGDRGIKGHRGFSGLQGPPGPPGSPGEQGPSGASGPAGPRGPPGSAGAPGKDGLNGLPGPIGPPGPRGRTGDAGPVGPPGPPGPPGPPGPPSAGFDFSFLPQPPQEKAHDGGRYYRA
plate-immobilized collagen, sequence (P08123 80-1119 limits assumed): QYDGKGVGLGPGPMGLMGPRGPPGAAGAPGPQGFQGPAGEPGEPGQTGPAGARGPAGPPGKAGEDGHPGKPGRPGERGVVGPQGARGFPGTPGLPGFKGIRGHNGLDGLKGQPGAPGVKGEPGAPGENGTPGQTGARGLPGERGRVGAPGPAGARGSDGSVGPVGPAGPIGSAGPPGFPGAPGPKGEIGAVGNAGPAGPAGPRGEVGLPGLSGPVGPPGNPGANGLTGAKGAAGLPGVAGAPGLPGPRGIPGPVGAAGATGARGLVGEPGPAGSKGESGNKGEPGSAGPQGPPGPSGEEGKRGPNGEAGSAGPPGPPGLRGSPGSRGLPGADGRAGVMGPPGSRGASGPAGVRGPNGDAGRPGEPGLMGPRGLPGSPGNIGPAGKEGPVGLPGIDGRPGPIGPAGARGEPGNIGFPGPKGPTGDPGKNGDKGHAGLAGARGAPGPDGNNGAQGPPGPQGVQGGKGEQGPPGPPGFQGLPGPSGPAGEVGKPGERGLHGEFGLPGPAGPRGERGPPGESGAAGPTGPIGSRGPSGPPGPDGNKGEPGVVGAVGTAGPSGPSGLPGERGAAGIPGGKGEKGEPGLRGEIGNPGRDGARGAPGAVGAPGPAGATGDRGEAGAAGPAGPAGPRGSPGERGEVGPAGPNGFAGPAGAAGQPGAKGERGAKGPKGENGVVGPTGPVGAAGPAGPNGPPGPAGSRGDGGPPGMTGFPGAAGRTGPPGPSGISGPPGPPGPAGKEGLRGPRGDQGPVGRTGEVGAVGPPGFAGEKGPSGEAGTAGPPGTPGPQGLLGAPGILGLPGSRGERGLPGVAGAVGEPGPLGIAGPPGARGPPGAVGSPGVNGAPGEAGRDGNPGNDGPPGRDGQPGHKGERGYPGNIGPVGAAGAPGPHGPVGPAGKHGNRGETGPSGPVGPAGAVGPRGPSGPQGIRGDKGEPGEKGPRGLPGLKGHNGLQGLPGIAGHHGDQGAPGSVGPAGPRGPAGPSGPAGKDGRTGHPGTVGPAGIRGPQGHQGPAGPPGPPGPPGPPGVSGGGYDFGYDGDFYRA
Protocol: Purified FN was then reabsorbed to gelatin agarose. Sodium cyanoborohydride and mPEG-aldehyde (MW 5,000) were added to the resin-bound FN. […] Following this reaction and subsequent washing away of the reactants, the protein was eluted from the gelatin agarose matrix. Using this reaction sequence, the collagen binding sites within FN were not modified by the pegylation. […] To test whether the modified forms of FN retained the collagen-binding properties of native FN, binding studies using iodinated FN and FNPEG-5K were undertaken. […] Thus, the key collagen-binding properties of FN were not inhibited by this targeted modification approach.

type I collagen = type I collagen (Homo sapiens, UniProt P02452+P08123); test: platelet adhesion to type I collagen adsorbed to tissue culture plates after incubation with FN or FNPEG-5K; assay type: cell-based; settings: incubated with the protein and washed
type I collagen, sequence (P02452 162-1218 limits assumed): as the sequence (P02452 162-1218 limits assumed) above
type I collagen, sequence (P08123 80-1119 limits assumed): as the sequence (P08123 80-1119 limits assumed) above
Protocol: (§1) Since the modified FNPEG-5K retained the collagen binding properties of native FN while lacking its intrinsic platelet activating properties, the ability of this reagent to block platelet adherence to collagen was investigated. To test this, type I collagen was adsorbed to tissue culture plates. Native FN or FNPEG-5K were then incubated with the immobilized collagen and washed. Platelet adhesion was then assessed.

[2] = test system: blood vessel wall molecules; test: incubation of damaged blood vessels with biotinylated bioconjugate; assay type: binding; settings: biotinylated form
Protocol: To further assess the ECM-binding properties FNPEG-5K, damaged blood vessels were incubated with a biotinylated form of bioconjugate.

vascular wall components = test: platelet adhesion to damaged blood vessels; assay type: cell-based
Protocol: as §1

inhibition of platelet binding to type I collagen (type I collagen): potently inhibited
Substance: FNPEG-5K: human plasma fibronectin pegylated on lysine residues with mPEG-aldehyde (MW 5,000) by reductive amination while bound to gelatin agarose
binding to platelets (platelet adhesion to immobilized protein) (platelets): markedly attenuated
binding to plate-immobilized collagen [1]: bound plate-immobilized collagen in a manner similar to native FN
coating of blood vessel wall molecules (ECM binding) [2]: coats blood vessel wall molecules
blocking of platelet adhesion to vascular wall components (vascular wall components): blocks platelet adhesion to vascular wall components
